The source of these data is ChEMBL document CHEMBL1156829 (Proc Natl Acad Sci U S A, 2008).

Data set [1] deals with Plasmodium falciparum. In words: NOVARTIS: Inhibition of Plasmodium falciparum W2 (drug-resistant) proliferation in erythrocyte-based infection assay. It counts as functional, organism-based. Particulars: Plasmodium falciparum, W2; read-out: EC50.
Data set [2] deals with Plasmodium falciparum. In words: NOVARTIS: Inhibition of Plasmodium falciparum 3D7 (drug-susceptible) proliferation in erythrocyte-based infection assay. In kind it is functional, organism-based. Particulars: Plasmodium falciparum, 3D7.
Data set [3] is described as follows: NOVARTIS: Cytotoxicity against human hepatocellular carcinoma cell line (Huh7). It counts as toxicity, cell-based, Huh-7. Particulars: Huh7 cells (hepatocellular carcinoma cell line).

As a reminder, the EC50 is the concentration giving half of the maximal effect. In general, CC50 refers to the concentration at which the toxic effect on the cells reaches its halfway point. Low readings indicate harm at low concentration, high ones better tolerance by the cells.

As to `Oc1cc(-c2ccccc2)nc2ccccc12`, the EC50 in the data set on Plasmodium falciparum [1] came out at 547 nM; in the data set on Plasmodium falciparum [2] it was 1060 nM. Besides, the CC50 in data set [3] was over 93200 nM.
The corresponding values for `N=c1c2ccccc2nnn1-c1ccc(C(F)(F)F)cc1` are 575 nM, 392 nM and over 100000 nM.
The corresponding values for `CCNC(=O)N(CCCCOc1ccc(C(C)(C)CC)cc1C(C)(C)CC)Cc1ccc(OC)c(OCc2ccccc2)c1` are 61 nM, 595 nM and over 10000 nM.
As to `O=C(Nc1nc(-c2ccccn2)cs1)c1ccc(Oc2ccc(C(=O)Nc3nc(-c4ccccn4)cs3)cc2)cc1`, the 50% effective concentration (EC50) worked out at 602 nM in the data set with Plasmodium falciparum [1] and 2240 nM in the data set on Plasmodium falciparum [2]. For the same compound, the half-maximal cytotoxic concentration (CC50) in data set [3] is over 100000 nM.
On to `CC(=C(Cl)Cl)/C(Br)=C(\Br)CO`, for which the concentration giving a half-maximal response (EC50) in the data set on Plasmodium falciparum [1] came to 59.5 nM; in the data set on Plasmodium falciparum [2] it was 179 nM. In data set [3], this compound registered a CC50 of over 10000 nM.
Consider `CCOC(=O)N1CCN(C(=O)c2ccc(N3CC4CC(C3)c3cccc(=O)n3C4)c(NS(=O)(=O)c3ccc4c(c3)OCCO4)c2)CC1` (centres undefined), for which the results for the EC50 in the data set on Plasmodium falciparum [1] and in the data set with Plasmodium falciparum [2] were 589 nM and 2470 nM, respectively. In addition, the CC50 in data set [3] is over 100000 nM.
The corresponding values for `COc1cc(C(=O)NCc2ccco2)ccc1OC1CCN(CC(c2ccccc2)c2ccccc2)CC1` are 58.7 nM, 118 nM and over 10000 nM.
The corresponding values for `C=C(C)CSc1nc(N)c2c3c(sc2n1)CN(CCC)CC3` are 383 nM, 799 nM and over 66300 nM.
The corresponding values for `O=C(Nc1ccon1)c1cc(-c2cccnc2)nc2ccc(Cl)cc12` are 606 nM, 1500 nM and over 100000 nM.
As to `Cc1cc(-c2ccc(O)c(CN3CCCCCC3)c2)c2ccccc2n1`, the EC50 with Plasmodium falciparum [1] turned out to be 345 nM; with Plasmodium falciparum [2], 1120 nM. Moreover, it took 55900 nM to reach half-maximal cytotoxicity in data set [3] (CC50).
With `CCc1noc(C)c1C(=O)NCCN1Cc2ccccc2OC(c2ccsc2)C1` (centres undefined), the figures for the EC50 in the data set with Plasmodium falciparum [1] and with Plasmodium falciparum [2] were 615 nM and 827 nM, respectively. In data set [3], this compound registered a half-maximal cytotoxic concentration (CC50) of over 100000 nM.
As to `COc1ccc(C2Nc3ccc([N+](=O)[O-])cc3C3C=CCC32)cc1[N+](=O)[O-]` (centres undefined), the values for the 50% effective concentration (EC50) in the data set with Plasmodium falciparum [1] and in the data set on Plasmodium falciparum [2] were 616 nM and 1500 nM, respectively. In data set [3], this compound had a cytotoxic concentration (CC50) of over 100000 nM.
The corresponding values for `C=CCc1cc(-c2cc(CC=C)c(O)c(CN(CC)CC)c2)cc(CN(CC)CC)c1O` are 61.9 nM, 273 nM and over 10000 nM.
With `CCC(CC)CN1CCC(O)(c2ccc3oc(C(=O)Nc4ccc(OC)cc4)cc3c2)CC1`, the concentration for a half-maximal effect (EC50) in the data set on Plasmodium falciparum [1] was 617 nM; in the data set with Plasmodium falciparum [2], 954 nM. This compound also came in with a CC50 in data set [3] of over 100000 nM.
The corresponding values for `CCCC(c1nnnn1C1CCCCC1)N1CCN(C(=O)c2ccco2)CC1` (centres undefined) are 616 nM, 1330 nM and over 100000 nM.
In the same order, the values of `Cc1ccc(-n2c(C)c(C(=O)c3ccccc3)c3cc(O)ccc32)cc1` are 615 nM, 508 nM and over 100000 nM.
In the same order, the values of `O=C(COc1ccccc1)NC(c1ccco1)c1cc(Cl)c2cccnc2c1O` (centres undefined) are 589 nM, 1490 nM and over 100000 nM.
For the compound `CC(C)(C)CC(C)(C)Nc1c(-c2ccccc2OC(=O)c2ccccc2Cl)nc2ccccn12`, the 50% effective concentration (EC50) in the data set on Plasmodium falciparum [1] was determined as 58.8 nM; in the data set with Plasmodium falciparum [2] it was 822 nM. The CC50 in data set [3] was over 10000 nM.
The corresponding values for `CCCOC(=O)C1=C(C)NC2=C(C(=O)CC(c3ccc(Cl)cc3)C2)C1c1ccc(Cl)cc1` (centres undefined) are 398 nM, 294 nM and over 69800 nM.
Regarding `Cc1cc(Nc2ccc(Br)cc2)n2nc(C)nc2n1`, the concentration for a half-maximal effect (EC50) with Plasmodium falciparum [1] is 595 nM; in the data set with Plasmodium falciparum [2], 728 nM. In data set [3], this compound gave a CC50 of over 100000 nM.
The corresponding values for `CC(=O)Nc1ccc(NC(=O)C(C)(C)CCl)cc1` are 62.1 nM, over 1000 nM and over 10500 nM.
In the same order, the values of `Cc1cccc(C2Sc3ccccc3N=C3c4ccccc4C(=O)C32)c1` (centres undefined) are 140 nM, 300 nM and 24400 nM.
Regarding `O=C(CSc1ccc2nnc(-c3cccs3)n2n1)Nc1ccc2c(c1)OCCO2`, the EC50 with Plasmodium falciparum [1] worked out at 573 nM; in the data set with Plasmodium falciparum [2], 447 nM. In addition, the CC50 in data set [3] was over 100000 nM.
As to `Cc1cc2c(cc1C)N(C(=O)c1ccccc1)C(C)(C)c1ssc(=S)c1-2`, the EC50 in the data set with Plasmodium falciparum [1] turned out to be 572 nM; in the data set with Plasmodium falciparum [2], 600 nM. This compound registered a CC50 in data set [3] of over 100000 nM.
In the case of `CCOc1ccc(C(=O)Cn2ccc(=NCc3ccccc3)cc2)cc1[N+](=O)[O-]`, the values for the half-maximal effective concentration (EC50) in the data set on Plasmodium falciparum [1] and in the data set with Plasmodium falciparum [2] were 121 nM and 69.7 nM, respectively. This compound also displayed a CC50 in data set [3] of 20100 nM.
In the case of `COc1cccc(C(Nc2cc(C)ccn2)c2ccc3cccnc3c2O)c1` (centres undefined), the EC50 is 562 nM in the data set with Plasmodium falciparum [1] and 1110 nM in the data set on Plasmodium falciparum [2]. Moreover, in data set [3], the CC50 is over 93500 nM.
The corresponding values for `COc1ccc(CC2NCC(O)C2OC(C)=O)cc1` (centres undefined) are 48.5 nM, 36.9 nM and 8110 nM.
Consider `COc1ccc(NC(=O)C=Cc2ccccc2Cl)cc1`, for which the values for the half-maximal effective concentration (EC50) in the data set on Plasmodium falciparum [1] and in the data set with Plasmodium falciparum [2] were 577 nM and 972 nM, respectively. Besides, the 50% cytotoxic concentration (CC50) in data set [3] was over 100000 nM.
The corresponding values for `C=CCOc1c(Br)cc(C=c2sc3n(c2=O)C(c2ccc(OC)c(OC)c2)C(C(=O)OCC)=C(C)N=3)cc1OC` (centres undefined) are 576 nM, over 12500 nM and over 100000 nM.
In the same order, the values of `O=C(Nc1ccc(-n2cnnn2)cc1)C1CCN(Cc2ccc(OC(F)F)cc2)CC1` are 266 nM, 1590 nM and 46300 nM.
For the compound `CCOc1ccc(N2C(=O)C3C4CC(C(Br)C4Br)C3C2=O)cc1` (centres undefined), the values for the EC50 in the data set with Plasmodium falciparum [1] and with Plasmodium falciparum [2] were 441 nM and over 12500 nM, respectively. In addition, in data set [3], the CC50 was over 72500 nM.
With `CCc1ccc(NC(=O)C2c3ccccc3C(=O)N(CC(C)C)C2c2cccs2)cc1` (centres undefined), the EC50 was found to be 607 nM in the data set with Plasmodium falciparum [1] and 2300 nM in the data set with Plasmodium falciparum [2]. The compound also registered a CC50 in data set [3] of over 100000 nM.
In the same order, the values of `CC(=O)N(C1=C(N(C)C)C(=O)c2ccccc2C1=O)c1cccc(O)c1` are 58.2 nM, 46.7 nM and over 10000 nM.
In the same order, the values of `CCOc1ccc(C2C(C(=O)OC)=CNC=C2C(=O)OC)cc1Cl` are 581 nM, 304 nM and over 100000 nM.
With `CCOC(=O)C1CCN(C(=O)C(=O)Nc2ccc3nc4n(c(=O)c3c2)CCCCC4)CC1`, the EC50 was 580 nM in the data set on Plasmodium falciparum [1] and 998 nM with Plasmodium falciparum [2]. The compound also came in with a CC50 in data set [3] of over 100000 nM.
Take `C=CC1CN2CCC1CC2[C@@H](OC(=O)c1ccc(OC)cc1)c1ccnc2ccccc12` (some centres undefined): the figures for the EC50 with Plasmodium falciparum [1] and in the data set on Plasmodium falciparum [2] were 509 nM and 309 nM, respectively. Besides, the cytotoxic concentration (CC50) in data set [3] was found to be 87100 nM.
In the same order, the values of `CCNc1nc(OC)nc(Oc2ccc(=O)n(-c3ccccc3)n2)n1` are 584 nM, 548 nM and over 100000 nM.
Consider `COc1ccc(-c2c[n+](CC(=O)c3ccccc3)c3n2CCC3)cc1`, for which the results for the concentration giving a half-maximal response (EC50) in the data set with Plasmodium falciparum [1] and in the data set on Plasmodium falciparum [2] were 571 nM and 1200 nM, respectively. In data set [3], this compound showed a CC50 of over 100000 nM.
For the compound `COC(=O)C1C(=O)C2=C(CC1C)NC(=O)CC2c1cccc(Cl)c1Cl` (centres undefined), the concentration giving a half-maximal response (EC50) was 617 nM with Plasmodium falciparum [1] and 814 nM with Plasmodium falciparum [2]. For the same compound, in data set [3], the CC50 is over 100000 nM.
As to `O=C1C2C(C(=O)N1c1ccc(Cl)c(C(F)(F)F)c1)C1(c3ccccc3)C(=O)C2(c2ccccc2)C(c2ccccc2)=C1c1ccccc1` (centres undefined), the EC50 in the data set on Plasmodium falciparum [1] was determined as 616 nM; in the data set on Plasmodium falciparum [2] it was 442 nM. In data set [3], the CC50 was over 100000 nM.
In the case of `COc1ccc(C2=C(c3ccc(OC)cc3)C3(c4ccccc4)C(=O)C2(c2ccccc2)C2C(=O)N(c4ccccc4[N+](=O)[O-])C(=O)C23)cc1` (centres undefined), the EC50 in the data set with Plasmodium falciparum [1] stood at 580 nM; with Plasmodium falciparum [2] it was 1190 nM. The compound further had a 50% cytotoxic concentration (CC50) in data set [3] of over 100000 nM.
Take `CC[C@H]1CN2CC[C@@H]1C[C@@H]2[C@@H](O)c1ccnc2ccc(OC)cc12`: the EC50 was 57.9 nM in the data set on Plasmodium falciparum [1] and 31.8 nM with Plasmodium falciparum [2]. The CC50 in data set [3] was over 10000 nM.
In the same order, the values of `COC(=O)[C@@H]1C[C@@H](NC(=O)c2ccc(OC)cc2)CN1CC(c1ccccc1)c1ccccc1` are under 25.7 nM, 1150 nM and over 4170 nM.
As for `COC(=O)C1=CN(Cc2ccc(OC)cc2)C=C(C(=O)OC)C1c1cccs1`, the EC50 was determined as 602 nM in the data set with Plasmodium falciparum [1] and 5640 nM in the data set on Plasmodium falciparum [2]. The compound also displayed a CC50 in data set [3] of over 100000 nM.
The corresponding values for `CCOC(=O)C1CCN(C(=O)c2cc(C(C)(C)C)nn2Cc2ccc(Cl)cc2Cl)CC1` are 576 nM, 340 nM and over 100000 nM.
Regarding `CCOC(=O)c1cnc2c(C)cc(C)cc2c1Nc1ccc(OC)c(OC)c1`, the EC50 with Plasmodium falciparum [1] came to 583 nM; in the data set with Plasmodium falciparum [2], 1780 nM. In addition, the CC50 in data set [3] is over 100000 nM.
The corresponding values for `CCOc1ccc(N(C(=O)C2COc3ccccc3O2)C(C(=O)NC2CCCCC2)c2cn(C)nc2C)cc1` (centres undefined) are 614 nM, 443 nM and over 100000 nM.
The corresponding values for `N#Cc1c(N)nc(SCC(=O)c2ccc(Cl)cc2)c(C#N)c1-c1ccco1` are 595 nM, 2280 nM and over 100000 nM.
In the same order, the values of `O=C1CC(c2ccccc2)CC2=C1C(c1cccc(Cl)c1Cl)Nc1ccccc1N2` (centres undefined) are 464 nM, 288 nM and over 78800 nM.
Regarding `Clc1ccc(Nc2nc(NCc3ccco3)c3ccccc3n2)cc1`, the EC50 in the data set with Plasmodium falciparum [1] amounted to 92.4 nM; in the data set with Plasmodium falciparum [2], 113 nM. The compound further registered a cytotoxic concentration (CC50) in data set [3] of 15600 nM.
In the same order, the values of `CCCCc1c(CCC)c(=N)c2ccccc2n1C` are 422 nM, 311 nM and 71900 nM.
Take `Cc1nc2c(C)cccc2c(O)c1CC=C(Cl)Cl`: the 50% effective concentration (EC50) in the data set on Plasmodium falciparum [1] is 609 nM; in the data set on Plasmodium falciparum [2] it was 1110 nM. For the same compound, the 50% cytotoxic concentration (CC50) in data set [3] was over 100000 nM.
In the same order, the values of `CCOC(=O)c1cnc2c(C)cccc2c1Nc1cccc(C(C)=O)c1` are 607 nM, 1020 nM and over 100000 nM.
